Experimental data taken from patent US20020137891A1, “Protein scaffold and its use to multimerise monomeric polypeptides” (priority 1999, published 2002).

Experiments:
[1] = system: anti-GroEL antibodies; assay: Anti-GroEL antibodies binding by ELISA; set-up: species or system rabbit; conditions: direct and indirect ELISA, different concentrations of antibodies, FIG. 6
Method: Anti-GroEL antibodies binding by ELISA. The same amount of proteins (1 μg) were coated as described above. […] ELISAs were developed as described above.

[2] = system: E. coli SV2 groEL44; assay: In vivo complementation of thermosensitive groEL mutant at 43° C., strain SV2; type: cell-based; conditions: pJC plasmid, relative to growth at 30° C.
Method: (§1) In vivo complementation experiments. Complementation experiments were performed by transforming electro-competent SV2 or SV6 cells with the pJC series of expression vectors and plating an aliquot of the transformation reactions directly at 43° C. The percentage of viable cells relative to the growth at 30° C. was determined. A representative number of clones which grew at 43° C. were incubated in absence of any selective markers at permissive temperature. After prolonged growth the loss of the pJC plasmids and the ts phenotype were verified. Each experiment was performed in duplicate. Plasmids carrying no groE genes or encoding the GroE proteins were used as negative or positive controls, respectively.

[3] = system: E. coli SV6 groEL673; assay: In vivo complementation of thermosensitive groEL mutant at 43° C., strain SV6; type: cell-based; conditions: pJC plasmid, relative to growth at 30° C.
Method: as §1

[4] = system: bacteriophage λ (b2cI); assay: Growth (plaque formation) of bacteriophage λ at 30° C. in transformed wild-type and groEL mutant strains; type: cell-based, E. coli
From the text: Bacterial and bacteriophage strains. The E. coli strains used in this study were: C41(DE3), a mutant of BL21(DE3) capable of expressing toxic genes (Miroux, B. & Walker, J. E. (1996) J. Mol. Biol. 260, 289-298); SV2 (B178groEL44), SV3 (B178groEL59) and SV6 (B178groEL673): isogenic strains carrying temperature-sensitive alleles of groEL; SV1(=B178) (Georgopoulos, C., Hendrix, R. W., Casjens, S. R. & Kaiser, A. D. (1973) J. Mol. Biol. 76, 45-60), AI90 (ΔgroEL::kan^R) [pBAD-EL] (Ivic, A., Olden, D., Wallington, E. J. & Lund, P. A. (1997) Gene 194, 1-8), and TG1 (Gibson, T. J. (1984) Ph.D. thesis, University of Cambridge, U.K). Bacteriophage λb2cI (Zeilstra-Ryalls, J., Fayet, O., Baird, L. & Georgopoulos, C. (1993) J. Bacteriol. 175, 1134-1143) was used according to standard methods (Arber, W., Enquist, L., Hohn, B., Murray, N. E. & Murray, K. (1983) in Lambda II., ed. R. W. Hendrix, J. W. r., F. W. Stahl and R. A. Weisberg (Cold Spring Harbor Laboratory, Cold Spring Harbor, N.Y.), pp. 433-466); plaque formation was assayed at 30° C. T4D0, a derivative of bacteriophage T4 (Zeilstra-Ryalls, J., Fayet, O., Baird, L. & Georgopoulos, C. (1993) J. Bacteriol. 175, 1134-1143), was used according to standard methods (Karam, J. D. (1994) Molecular biology of bacteriophage T4. (American Society for Microbiology, Washington, D.C.)); plaque formation was assayed at 37° C.
Bacteriophage λ requires the chaperonins GroES and GroEL for protein folding during morphogenesis; bacteriophage T4 requires GroEL and Gp31, the latter being encoded by the bacteriophage genome (Zeilstra-Ryalls, J., Fayet, O. & Georgopoulos, C. (1991) Annu. Rev. Microbiol. 45, 301-325). Nine groE alleles which fail to support λ growth have been sequenced (Zeilstra-Ryalls, J., Fayet, O., Baird, L. & Georgopoulos, C. (1993) J. Bacteriol. 175, 1134-1143). We examined the ability of MC7, over-expressed from the constitutive tet promoter on a high-copy number vector (see FIG. 2), to complement three mutant groEL alleles for plaque formation by λ (b2cI) at 30° C. (Table 3) and T4 at 37° C. (Table 4).

[5] = system: Lorist6 (bacteriophage λ origin vector); assay: Effect of over-expression on Lorist6 replication; type: cell-based, E. coli; conditions: over-expression from pJC vectors in TG1 or SV1
Method: Effect on Lorist6 replication of over-expressing of MC7. The effect of over-expressing Gp31 proteins from pJC vector series on the replication of the bacteriophage λ origin vector, Lorist6 (Gibson, T. J., Rosenthal, A. & Waterston, R. H. (1987) Gene 53, 283-286) in TG1 (Gibson, T. J. (1984) Ph.D. thesis, University of Cambridge, U.K) or SV1 (Georgopoulos, C., Hendrix, R. W., Casjens, S. R. & Kaiser, A. D. (1973) J. Mol. Biol. 76, 45-60) cells was determined essentially as described (Chatellier, J., Hill, F., Lund, P. & Fersht, A. R. (1998) Proc. Natl. Acad. Sci. U.S.A. 95, 9861-9866).

[6] = system: mutant Huntingdon exon 1-expressing PC12 and SH-SY5Y cells; assay: Inclusion formation and cell death in mutant Huntingdon exon 1-expressing cells on overexpression of chaperones; type: cell-based
From the text: These phenomena have been studied by transiently transfecting part of Huntingdon exon 1 in COS-7, PC12, and SH-SY5Y cells. Inclusion formation was not seen with constructs expressing 23 glutamines but was repeat length and time dependent for mutant constructs with 43-74 repeats. HSP70, HSP40, the 20S proteasome and ubiquitin colocalized with inclusions. […] Thus, inclusion formation may be enhanced in polyglutamine diseases, if the pathological process results in proteasome inhibition or a heat-shock response. […] To our knowledge, this is the first report of an HSP increasing aggregation of an abnormally folded protein in mammalian cells and expands the current understanding of the roles of HDJ-2yHSDJ in protein folding (See Wyttenbach, A. et al. (2000) Proc. Natl. Acad. Sci. USA 97, 2899-2903).
We have tested MC72 in the same system.

[7] = system: SV2 [pBADGroES]; conditions: SV2 over-expressing GroES from pBAD
[8] = molecular target: GroES (Escherichia coli, UniProt P0A6F9); conditions: read-out: apparent dissociation constant for the formation of the GroEL-GroES complex; cited from earlier work
Chain of GroES (P0A6F9 whole entry): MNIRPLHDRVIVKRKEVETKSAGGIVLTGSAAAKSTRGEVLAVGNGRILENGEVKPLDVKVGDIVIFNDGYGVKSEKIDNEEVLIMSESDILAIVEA

For “GroEL (1-548): E. coli molecular chaperone, 14 subunits of 57.5 kD in two seven membered rings [reference compound]”, the “Detection by antibodies specific to GroEL” value [1] was “comparable detection levels”, the “Relative colony forming ability, SV2 groEL44” value [2] was 1 and the “Relative colony forming ability, SV6 groEL673” value [3] was 1. For the same substance, the “Complementation of groEL mutant strains for bacteriophage λ growth (in words)” value [4] was “weak complementation of λ growth in SV2 (groEL44) and SV3 (groEL59; Ser201→Phe)”, the “Effect of over-expression on plaque formation by bacteriophage λ in SV1 (groE^+) (in words)” value [4] was “suffices to inhibit λ growth” and the “Growth of bacteriophage λ, SV1 (groEL^+)” value ([4]; pJC plasmid) was “− (no visible plaques (<10^−4))”. The “Growth of bacteriophage λ, SV2 groEL44” value ([4]; pJC plasmid) was “+ (10-fold fewer plaques, or plaque size reduced relative to wild-type groEL^+ strain, or both)”, the “Growth of bacteriophage λ, SV3 GroEL59” value ([4]; pJC plasmid) was “++ (5-fold fewer plaques relative to wild-type groEL^+ strain, or both)” and the “Growth of bacteriophage λ, SV6 groEL673” value ([4]; pJC plasmid) was “+/− (10^2-fold fewer plaques and plaque size reduced relative to wild-type groEL^+ strain)”. The “Replication of the Lorist6 plasmid” value [5] was “inhibit the replication of the Lorist6 plasmid”, the cell death [6] was “had no effect” and the inclusion formation [6] was “had no effect”. The “Plaque size and number” value [7] was “do not completely eliminate them” and the Kd [8] was 1000 nM.
